Tested on: mouse
Format: in vivo
Settings: oral administration at 5 g/kg weight
Source text: The theanine used in the present invention has high safety. […] Also, especially L-theanine is known as a main component of umami (tastiness) of the green tea, and is also used as a food additive giving umami, without the limitation of its added amount under the regulation for food hygiene. Moreover, contrary to the conventional drugs, since there is no side effect by theanine at all, the mood disorders can be safely and effectively treated, ameliorated or the like according to the composition of the present invention.

**Q.** `CCNC(=O)CC[C@H](N)C(=O)O` [theanine] was tested. Which cases of death did it give?
**A.** no cases of death
